Reference: patent US20040037775A1, “Leukocyte internalized peptide-drug conjugates” (priority 2000, published 2004)
Entries after “also recorded” stand apart in the source; their conditions may differ. Starred links: 1 amine or outer side, 2 acyl side, 3 side chain; linkers in the order of their positions; H or OH if unused. Positions of bridges follow the written chain, without caps; N, C: chain ends. Non-standard residues stand in square brackets, D forms with d. Residues, ends and D or L forms follow the SMILES beside them. *: point of attachment. DAMPA = CN(Cc1cnc2nc(N)nc(N)c2n1)c1ccc(C(=O)*)cc1; γGlu = O=C(O)[C@H](CCC(=O)[*:2])N[*:1]; Pen = CC(C)(S)[C@H](N)C(=O)O

Columns and labels:
Molt-3 T-cells [1] = experiment: cells; format: cell-based, human; conditions: 72 h
Procedure: (§1) The cytotoxicity of MTX-peptide conjugates was evaluated in different cell lines, lincluding Molt-3 and L1210 T-cells, and KB epithelial cells. […] After 72 h of growth, the relative numbers of viable cells were determined according to the manufacture's protocols for measuring cytotoxicity using a Dojindo Cytotoxicity Assay Cell counting Kit-8 (CCK-8). To measure the cell viability, 10 μL of CCK-8 was added to each well and the plate was incubated for 4 h. After incubation, the absorbance at 450 nm was measured using a UV plate reader. Cell growth in the presence of different drug concentrations was calculated relative to the value obtained in the absence of the drug. […] Serial dilutions of compounds were prepared in un-supplemented medium, and 110 μL of drug solution was aliquoted in duplicate into 900 μL cell suspensions. Control flasks were treated with 110 μL of un-supplemented medium. Cells were incubated under standard conditions for 48 h, sufficient to allow control cells to divide approximately four times. Growth inhibition was determined by counting the cells on a Z2 model Coulter Counter (Coulter Electronics Ltd, Luton, Beds, UK). The IC50 values were calculated using Graphpad Prism software (Graphpad Software, San Diego, Calif.). KB MTT Assay: KB cells were seeded in Falcons® 96 well plates (Becton-Dickinson Labware Europe, France) at a density of 1,500 cells/well in a volume of 0.18 mL culture medium and incubated under standard culture conditions for 24 h after seeding to allow entry into the exponential phase of cell growth. […] In each assay condition, control cells were treated with 20 μL of un-supplemented medium instead of drug. Cells were incubated for 96 h to allow control cells to divide approximately four times before cell viability was determined by MTT assay.

[2] = system: L1210 mouse leukemia cells; experiment: cells; format: cell-based; conditions: 48 h
Procedure: as §1

[3] = system: Molt-3 T-cells/Calu-3 lung epithelial monolayers; experiment: heterotypic adhesion of Molt-3 T-cells to Calu-3 lung epithelial monolayers; format: cell-based, human; conditions: for effect on adherence of Molt-3 T-cells to Calu-3 monolayers: IFN-γ-induced Calu-3, PMA-activated Molt-3
Procedure: Molt-3, Caco-2 and Calu-3 cell lines were obtained from the American Type Culture Collection (Rockville, Md.). Molt-3 and Caco-2 cells were maintained and grown using known methods. Briefly, the Caco-2 cell-line was grown as monolayers in Dulbecco's modified Eagle's medium (DMEM) with 25 mM glucose containing 10% FBS, 1% nonessential amino acids, 1 mM Na-pyruvate, 1% L-glutamine and […] of penicillin/streptomycin. Cells were grown in 75-cm^2 tissue culture flasks (Falcon) for maintenance purposes and in a 48-well cell culture cluster (Costar) for heterotypic-adhesion experiments. Before confluency was reached, Caco-2 cells were induced with 100 U/mL IFN-γ for 24 h to up-regulate the ICAM-1 expression. Calu-3, a lung epithelial cell line, was maintained in a 1:1 mixture of Ham's F12:DMEM containing 10% FBS and 100 μg/mL penicillin/streptomycin. Upon reaching 90% confluency (approximately 4-5 days), cells were subcultured at a 1:2 split ratio using 0.25% trypsin/0.1% EDTA. Calu-3 cells were induced with 500 U/mL IFN-γ for 48 h to up-regulate the ICAM-1 expression. All cell lines were grown in a 95% humidified/5% CO2 atmosphere at 37° C.
Heterotypic Adhesion Experiments with LFA-1 derived peptides—Two heterotypic cell adhesion systems were used in this work. The adhesion between Molt-3 T-cells/Calu-3 lung epithelial monolayers was used to assess the inhibitory activities of cLAB.L and cLAB.2L; Molt-3 T-cells/Caco-2 colon epithelial monolayers system was for cLAB.L and its derivatives. Briefly, Calu-3 or Caco-2 cell monolayers were pretreated with peptide solution prior to the adherence of fluorescence-labeled Molt-3 cells. […] Soluble lysates were transferred to 96-well (clear-bottom, black-sided) plates (Costar) for reading in a microplate fluorescence analyzer (Bio-Tek FL600) to give relative fluorescence (FL), i.e., the reading of fluorescence intensity of adherent corrected with the reading of cell monolayers only. Data were presented as the percentage of T-cell adherence calculated as follows: […]

Molt-3 T-cells [4] = experiment: propidium iodide assay of growth and cytotoxicity in Molt-3 T-cells; format: cell-based, human; conditions: tested 0.1-500 μM
[5] = system: LFA-1 receptor on Molt-3 T-cells; experiment: protection against MTX-cIBR toxicity in Molt-3 T-cells (LFA-1 mediated internalization, MTT); format: cell-based, human; conditions: similar experiment
Procedure: As a control, some cells were left untreated. […] As a reference for minimal metabolic activity, 10 mM of the succinate dehydrogenase inhibitor iodoacetamide (IAA) was added to untreated wells. […] The tubes were spun to pellet the cells and the supernatant was carefully removed. The formazan crystals were dissolved in 200 μL of 0.04 N HCl in isopropanol; the tubes were sonicated for 5 min to completely dissolve crystals and then re-centrifuged to pelletize the cell debris. 100 μL aliquots of the supernatant solutions were removed and transferred to a 96-well microtiter plate. The optical density of the solution was measured at 570 nm using a UV plate reader.

[6] = system: dihydrofolate reductase enzyme (DHFR); experiment: DHFR inhibition assay (spectrophotometric NADPH loss, Dixon plots); format: biochemical
Procedure: Into a 2.0 mL cuvette, a 1.0 mL solution of 0.11 mM β-NADPH and 33 μL of 2.3 mM DHFA were aliquoted and allowed to equilibrate. […] To begin the assay, 33 μL of DHFR (0.12-0.25 unit/mL with 0.1% BSA) was added to the reaction mixture. The absorbance of the reaction mixture was then recorded continuously for 5 min at 340 nm and the enzyme activity was determined by the rate of NADPH loss. Enzyme activity was determined for three different fixed concentrations of substrate (0.19, 1.9 and 10.0 mM DHFA).

KB epithelial cells = experiment: KB MTT assay (96 h); format: cell-based, human
Procedure: Human KB epithelial l cells: The human KB epithelial cell line was a gift from Dr Gerrit Jansen (University Free Hospital, Amsterdam, Netherlands) and was developed to overexpress the membrane folate binding protein (mFBP). Cells were cultured in RPMI 1640 medium without folic acid and supplemented with 10% heat inactivated dialyzed FCS (50 mL volume), 0.2 mL of 50 μg/mL gentamicin, 1 mL of 50 μg/mL amphotericin B, and 5 mL of 200 mM L-glutamine. The folate source, 20 nM (R,S)-LV, was added to supply cells with adequate growth conditions.
The cytotoxicity of MTX-peptide conjugates was evaluated in different cell lines, lincluding Molt-3 and L1210 T-cells, and KB epithelial cells. […] After 72 h of growth, the relative numbers of viable cells were determined according to the manufacture's protocols for measuring cytotoxicity using a Dojindo Cytotoxicity Assay Cell counting Kit-8 (CCK-8). To measure the cell viability, 10 μL of CCK-8 was added to each well and the plate was incubated for 4 h. After incubation, the absorbance at 450 nm was measured using a UV plate reader. Cell growth in the presence of different drug concentrations was calculated relative to the value obtained in the absence of the drug. […] Growth inhibition was determined by counting the cells on a Z2 model Coulter Counter (Coulter Electronics Ltd, Luton, Beds, UK). The IC50 values were calculated using Graphpad Prism software (Graphpad Software, San Diego, Calif.). […] Cells were incubated for 96 h to allow control cells to divide approximately four times before cell viability was determined by MTT assay.
The number of viable cells after a 96-h incubation was determined by assessing their ability to reduce MTT ([…]). […] The absorbance of the solution in each well was measured at 540 nm on a MCC/340 model Titertak Multiscan® plate reader (Labsystems/Flow Laboratories, Oxfordshire, UK). The results were analyzed using Ascent Research software v.2.1 (Labsystems, UK).

## CC(C)[C@H](NC(=O)[C@H](CO)NC(=O)CNC(=O)CNC(=O)[C@H](CCCNC(=N)N)NC(=O)[C@@H]1CCCN1C(=O)CC[C@H](NC(=O)c1ccc(N(C)Cc2cnc3nc(N)nc(N)c3n2)cc1)C(=O)O)C(N)=O [MTX-PRGGSV] ({DAMPA-γGlu}-PRGGSV-NH2)
Molt-3 T-cells [1]
  IC50: 5.13 ± 0.6 µM
[2]
  IC50: 1.6 ± 0.4 µM

## cyclol,12-PenITDGEATDSGC [cLAB.L]
[3]
  effect on adherence of Molt-3 T-cells to Calu-3 monolayers: significantly reduces
[3]; IFN-γ-induced Calu-3 monolayers, BCECF labeled Molt-3 cells
  inhibition of heterotypic cell adhesion: about 40%
Molt-3 T-cells [4]
  concentration at which total growth inhibition emerged in Molt-3 cells: 100 µM

## CC(C)C[C@@H]1NC(=O)[C@H](C(C)C)NC(=O)[C@H](CO)NC(=O)CNC(=O)CNC(=O)[C@H](CCCNC(=N)N)NC(=O)[C@@H]2CCCN2C(=O)[C@@H](N)C(C)(C)SSC[C@@H](C(=O)O)NC(=O)CNC(=O)[C@H]([C@@H](C)O)NC(=O)[C@H](C(C)C)NC1=O [cIBR peptide] (H-[Pen]PRGGSVLVTGC-OH; disulfide 1-12)
[5]
  effect on cytotoxicity of MTX-cIBR: reduced the cytotoxicity of MTX-cIBR in a concentration dependent manner

## cyclol,12-PenDLSTSLDDLRC [cLBE.L]
Molt-3 T-cells [4]
  concentration at which total growth inhibition emerged in Molt-3 cells: 100 µM

## CC[C@H](C)[C@H](NC(=O)[C@@H](NC(=O)CC[C@H](NC(=O)c1ccc(N(C)Cc2cnc3nc(N)nc(N)c3n2)cc1)C(=O)O)C(C)C)C(=O)N[C@@H](CC(C)C)C(=O)N1CCC[C@H]1C(=O)N[C@@H](CCCNC(=N)N)C(=O)NCC(N)=O [MTX-VILPRG] ({DAMPA-γGlu}-VILPRG-NH2)
Molt-3 T-cells [1]
  IC50: 9.12 ± 0.2 µM
[2]
  IC50: 0.7 ± 0.3 µM

## Xaa-Gly Val Asp Val Asp Glp Asp Gly Glu Thr-Cys [cLAB.2L, cyclic domain V peptide of LFA-1]
[3]
  effect on adherence of Molt-3 T-cells to Calu-3 monolayers: did not interfere; also recorded: no significant effect

## CC[C@H](C)[C@@H]1NC(=O)[C@H](C(C)C)NC(=O)[C@H](CCCCN)NC(=O)[C@H](CO)NC(=O)[C@@H]2CCCN2C(=O)[C@H](CO)NC(=O)[C@H](C(C)C)NC(=O)[C@H](CO)NC(=O)[C@H]([C@@H](C)O)NC(=O)[C@H](CCC(N)=O)NC(=O)[C@@H](NC(=O)CC[C@H](NC(=O)c2ccc(N(C)Cc3cnc4nc(N)nc(N)c4n3)cc2)C(=O)O)C(C)(C)SSC[C@@H](C(=O)O)NC1=O [MTX-cIBL] ({DAMPA-γGlu}-[Pen]QTSVSPSKVIC-OH; disulfide 1-12)
Molt-3 T-cells [1]
  IC50: 2.68 ± 0.2 µM
[2]
  IC50: 9.14 ± 1 µM
[6]
  Km relative to that of MTX: approximately 4 fold
[6]; from Dixon plots
  Ymax: 4.26 ± 0.07 × 10^−4
KB epithelial cells
  IC50: > 10 µM
